Laboratory results published in patent US11945794B2, “Nuclear transport modulators and uses thereof” (Karyopharm Therapeutics Inc., priority 2013, dated 2024).

Legend:
Test in all cases: MTT assay panel
Assay type in all cases: cell-based
U-266 = settings: Homo sapiens; U-266 cells, 72 hours
In short: (§1)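 Cancer and normal cell lines were plated at line-specific densities on day 1 and exposed to compound. Viability was read as absorbance at OD 495 after adding AQueous One tetrazolium reagent to each well.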

Toledo = settings: Homo sapiens; Toledo cells, 72 hours
In short: as §1

NCI-H2030 = settings: Homo sapiens; NCI-H2030 cells, 72 hours
In short: as §1

SW-620 = settings: Homo sapiens; SW-620 cells, 72 hours
In short: as §1

MHCC97H = settings: Homo sapiens; MHCC97H cells, 72 hours
In short: as §1

LS-174T = settings: Homo sapiens, LS174T; LS-174T cells, 72 hours
In short: as §1

HCT116 = settings: Homo sapiens, HCT-116; HCT116 cells, 72 hours
In short: as §1

OCIAML5 = settings: Homo sapiens, OCI-AML-5; OCIAML5 cells, 72 hours
In short: as §1

HuCCT-1 = settings: Homo sapiens; HuCCT-1 cells, 72 hours
In short: as §1

NCI-H820 = NCI-H820 cells, 72 hours
In short: as §1

Colo-201 = settings: Homo sapiens; Colo-201 cells, 72 hours
In short: as §1

SW-48 = settings: Homo sapiens, SW48; SW-48 cells, 72 hours
In short: as §1

TFK-1 = TFK-1 cells, 72 hours
In short: as §1

NC(=O)/C(=C/n1cnc(-c2cc(C(F)(F)F)cc(C(F)(F)F)c2)n1)c1cncnc1 [Compound 124, (E)-3-(3-(3,5-bis(trifluoromethyl)phenyl)-1H-1,2,4-triazol-1-yl)-2-(pyrimidin-5-yl)acrylamide]
IC50 (U-266): 230 nM
IC50 (Toledo): 70 nM
IC50 (NCI-H2030): 2050 nM
IC50 (SW-620): 420 nM
IC50 (MHCC97H): > 10000 nM
IC50 (LS-174T): 10000 nM
IC50 (HCT116): 110 nM
IC50 (OCIAML5): 40 nM
IC50 (HuCCT-1): 50 nM
IC50 (NCI-H820): 3400 nM
IC50 (Colo-201): > 10000 nM
IC50 (SW-48): 120 nM
IC50 (TFK-1): > 10000 nM
